Where a SMILES comes first, the peptide text is derived from it. Bridges are numbered along the chain shown (N, C = ends). Roman numbers before positions name the chains, in order. Where no end group is shown, it is not given here. The star is where a group is joined. FITC = O=C1OC2(c3ccc(O)cc3Oc3cc(O)ccc32)c2ccc(NC(=S)*)cc21; 5FAM = O=C1OC2(c3ccc(O)cc3Oc3cc(O)ccc32)c2ccc(C(=O)*)cc21
Legend:
[1] = Stability of peptides in mice serum (HPLC of remaining peptide, t1/2 by CompuSyn); format: in vitro ADME; details: for Fold increase (of t1/2 compared with CPPecp): t1/2 of CPPecp set as one-fold; for half-life: mouse
Method: FIG. 1 illustrates the stability of CPPecp in mice serum. CPPecp was dissolved in 1× PBS (4 mg/ml) and incubated with equal volume of mice serum (final 50%) for different time points (0, 2, 5, 15, 30, 60 min, respectively). The reaction was terminated by the addition of an equal volume of TCA solution (final 50%) and denatured serum proteins were removed by centrifugation. The supernatant was then assayed by HPLC to quantify the remaining CPPecp. Zero time point was set as 100 percent of remaining CPPecp and relative amounts of CPPecp in each time point were calculated. Data represent the mean±SD (standard deviation) of three independent experiments. The t1/2 of CPPecp was calculated by CompuSyn.
FIG. 2 illustrates comparison of stabilities between CPPecp and N-terminal FITC-conjugated CPPecp in mice serum. Both were dissolved in dH2O (0.5 mg/ml) and incubated with equal volume of 20% mice serum (final 10%) for different time points (0, 2, 5, 15, 30, 60 min, respectively). The reactions were terminated by the addition of an equal volume of TCA solution (final 50%) and denatured serum proteins were removed by centrifugation. The supernatants were assayed by HPLC to quantify the remaining peptides. Zero time point was set as 100 percent of remaining peptides and relative amounts of peptides in each time point were calculated. The t1/2, of CPPecp and N-terminal FITC-CPPecp were calculated by CompuSyn.
FIG. 3 illustrates stabilities of N-terminal (5-FAM)-CPPecp-CPPecp (A) and N-terminal Ac-CPPecp (B) in mice serum. Both modified peptides were dissolved in dH2O (0.5 mg/ml) and incubated with equal volume of 20% mice serum (final 10%) for different time points (0-24 hours for (5-FAM)-CPPecp-CPPecp and 0-60 min for Ac-CPPecp, respectively). The reactions were terminated by the addition of an equal volume of TCA solution (final 50%) and denatured serum proteins were removed by centrifugation. The supernatants were assayed by HPLC to quantify the remaining peptides. Zero time point was set as 100 percent of remaining peptides and relative amounts of peptides in each time point were calculated. The t1/2 of N-terminal (5-FAM)-CPPecp-CPPecp and N-terminal Ac-CPPecp were calculated by CompuSyn.
FIG. 5 illustrates comparison of stabilities between CPPecp (A) and CPPecp-dimer (B) in mice serum. Both peptides were dissolved in 1× PBS (4 mg/ml) and incubated with equal volume of mice serum (final 50%) for different time points (0-60 min for CPPecp and 0-48 hours for CPPecp-dimer, respectively). The reactions were terminated by the addition of an equal volume of TCA solution (final 50%) and denatured serum proteins were removed by centrifugation. The supernatants were assayed by HPLC to quantify the remaining peptides. Zero time point was set as 100 percent of remaining peptides and relative amounts of peptides in each time point were calculated. Data represent the mean±SD (standard deviation) of three independent experiments. The t1/2, of CPPecp and CPPecp-dimer were calculated by CompuSyn.
The unmodified CPPecp (NH2-NYRWRCKNQN-COOH (SEQ. ID NO:2)) was synthesized by MISSION BIOTECH Inc. in TAIWAN. To determine the stability of unmodified CPPecp in mice serum, 100 μl of CPPecp (0.5 mg/ml or 4 mg/ml) was mixed with equal volume of whole mice serum (strain: CD-1 (ICR), final 50%) and incubated at room temperature for 0, 2, 5, 15, 30 and 60 min. The reaction was stopped by adding 200 μl of 100% TCA solution and vortexed for 5 seconds to precipitate serum proteins. Denatured serum proteins were removed by centrifugation at 18000 x g, 4° C. for 2 mins. The supernatants were analyzed by HPLC (column: Purospher® STAR RP-18e, eluent A: 0.1% TFA in dH2O, eluent B: 0.1% TFA in acetonitrile, flow rate: 1ml/min, gradient: 2-35% of eluent B in 15 min, UV wavelength: 280 nm). Zero-time point was set as one hundred percent of remaining CPPecp and relative amount of CPPecp in each time point were calculated. The t1/2 of CPPecp was calculated by CompuSyn (ver. 1.0). […]

NCI-H460 cells = experiment: Heparan sulfate binding assay on cells (fluorescence spectrophotometer); format: cell-based; details: NCI-H460 cells pre-incubated with heparanase 5 U/ml, 37° C., 2 hours
Method: FIG. 7 illustrates binding specificity of CPPecp and CPPecp-dimer on NCI-H460 cells. Before treatment, each well (96-well plate) was blocked by 2% of BSA at 4° C. for 1 hour, and washed with PBS once. After blocking, NCI-H460 cells were incubated with 0.625, 1.25 and 2.5 μM of FITC-CPPecp and FITC-CPPecp dimer at 4° C. for 1 hour. After washing with PBS, the binding of FITC-CPPecp and FITC-CPPecp dimer were measured by fluorescence spectrophotometer (A). To test binding specificity, cells were incubated with heparanase (5 U/ml) at 37° C. for 2 hours before peptide incubation (B and C). Total peptide inputs (binding and washout) were set as 100 percent and the relative binding of FITC-CPPecp and FITC-CPPecp dimer were calculated. The data represented the means of triplicate incubations. […]
In order to certify if the specific binding affinity to heparan sulfate of disulfide linked CPPecp-dimer is still maintained as original CPPecp, the heparan sulfate binding affinity was investigated by FITC-conjugated CPPecp monomer and dimer, and measured by fluorescence spectrophotometer. […] After rinse, each well was refilled with 100 μl of 1× PBS and the fluorescence intensity was measured by fluorescence spectrophotometer (excitation: 485 nm; emission: 521 nm) as binding partition. Unbound and rinsed out peptides were obtained by adding up the fluorescence intensity of culture medium and buffer. […]

[2] = system: lung cancer cell lines: A549, NCI-H460 and NCI-H441; experiment: Toxicity in lung cancer cell lines (cell viability, MTS assay); format: cell-based; details: 0.3-30 μM, 72 hours
Method: FIG. 8 illustrates toxicities of CPPecp and CPPecp-dimer in different lung cancer cell lines. Cells were incubated with CPPecp and CPPecp-dimer in different concentrations (0, 0.3, 1, 3, 10 and 30 μM) at 37° C. for 72 hours. Cell viabilities were measured by MTS assay. The 0 μM of CPPecp (vehicle control) was set as 100 percent and the relative viabilities in each concentration were calculated.
In order to investigate the application potential of CPPecp-dimer as a drug carrier, the toxicity of CPPecp-dimer was tested and CPPecp monomer was compared in three lung cancer cell lines: A549, NCI-H460 and NCI-H441. Lung cancer cell lines were seeded in 96-well plates (2*10^3/well) and incubated overnight. After adhesion, cells were incubated with different concentrations of CPPecp and CPPecp dimer (0, 0.3, 1, 3, 10 and 30 μM) for 72 hours. Cell viabilities were determined by MST assay (Promega Corp.). The cells without treatment were set as control and 100 percent and the relative viabilities in each concentration were calculated.

[3] = mice serum, final 10%, peptide 0.5 mg/ml in dH2O
[4] = mice serum (CD-1 (ICR)), final 50%, room temperature

| Compound | stability compared with unmodified CPPecp (in words) ([1]; mice serum, final 10%) | Fold increase (of t1/2 compared with CPPecp) ([1]; mice serum) | half-life [1, 3] [min] | binding percentage after heparanase treatment (NCI-H460 cells) | increase of the stability of CPPecp ([1]; mice serum, final 50%) | half-life [1, 4] [min] | effect on cell viabilities [2] |
| --- | --- | --- | --- | --- | --- | --- | --- |
| N=C(N)NCCC[C@H](NC(=O)[C@H](Cc1c[nH]c2ccccc12)NC(=O)[C@H](CCCNC(=N)N)NC(=O)[C@H](Cc1ccc(O)cc1)NC(=O)[C@H](CC(N)=O)NC(=S)Nc1ccc2c(c1)C(=O)OC21c2ccc(O)cc2Oc2cc(O)ccc21)C(=O)N[C@@H](CS)C(=O)N[C@@H](CCCCN)C(=O)N[C@@H](CC(N)=O)C(=O)N[C@@H](CCC(N)=O)C(=O)N[C@@H](CC(N)=O)C(=O)O [FITC-CPPecp] ({FITC}-NYRWRCKNQN-OH; C-terminus assumed) | not improved | +40% | 3.28 | decreased binding percentage |  |  |  |
| N=C(N)NCCC[C@H](NC(=O)[C@H](Cc1c[nH]c2ccccc12)NC(=O)[C@H](CCCNC(=N)N)NC(=O)[C@H](Cc1ccc(O)cc1)NC(=O)[C@@H](N)CC(N)=O)C(=O)N[C@@H](CSSC[C@H](NC(=O)[C@H](CCCNC(=N)N)NC(=O)[C@H](Cc1c[nH]c2ccccc12)NC(=O)[C@H](CCCNC(=N)N)NC(=O)[C@H](Cc1ccc(O)cc1)NC(=O)[C@@H](N)CC(N)=O)C(=O)N[C@@H](CCCCN)C(=O)N[C@@H](CC(N)=O)C(=O)N[C@@H](CCC(N)=O)C(=O)N[C@@H](CC(N)=O)C(=O)O)C(=O)N[C@@H](CCCCN)C(=O)N[C@@H](CC(N)=O)C(=O)N[C@@H](CCC(N)=O)C(=O)N[C@@H](CC(N)=O)C(=O)O [CPPecp-dimer] (I: H-NYRWRCKNQN-OH / II: H-NYRWRCKNQN-OH; disulfide I:6-II:6) |  | +17900% |  |  | up to 180 fold | 420 | no inhibitory effect |
| N=C(N)NCCC[C@H](NC(=O)[C@H](Cc1ccc(O)cc1)NC(=O)[C@H](CC(N)=O)NC(=O)c1ccc2c(c1)C(=O)OC21c2ccc(O)cc2Oc2cc(O)ccc21)C(=O)N[C@@H](Cc1c[nH]c2ccccc12)C(=O)N[C@@H](CCCNC(=N)N)C(=O)N[C@@H](CS)C(=O)N[C@@H](CCCCN)C(=O)N[C@@H](CC(N)=O)C(=O)N[C@@H](CCC(N)=O)C(=O)N[C@@H](CC(N)=O)C(=O)N[C@@H](CC(N)=O)C(=O)N[C@@H](Cc1ccc(O)cc1)C(=O)N[C@@H](CCCNC(=N)N)C(=O)N[C@@H](Cc1c[nH]c2ccccc12)C(=O)N[C@@H](CCCNC(=N)N)C(=O)N[C@@H](CS)C(=O)N[C@@H](CCCCN)C(=O)N[C@@H](CC(N)=O)C(=O)N[C@@H](CCC(N)=O)C(=O)N[C@@H](CC(N)=O)C(=O)O [(5-FAM)-CPPecp-CPPecp] (5FAM-NYRWRCKNQNNYRWRCKNQN-OH; N-terminus and C-terminus assumed) | prolonged its stability from 2 to 24 hours | +720% | 19.2 |  |  |  |  |
| H-NYRWRCKNQN-OH [CPPecp, NH2-NYRWRCKNQN-COOH (SEQ. ID NO:2), reference compound] |  | 0% |  |  |  | 2.34 | no inhibitory effect |
| Ac-NYRWRCKNQN [Ac-CPPecp] |  | −24% | 1.79 |  |  |  |  |

Reference: patent publication US10526369B2, “Oxidative modification improves the drugability of cell penetrating peptides as drug carriers” (JOWIN BIOPHARMA, priority 2016, dated 2020)
